Experimental data taken from US6583180B2, “Glucocorticoid receptor modulators” (Abbott Laboratories, priority 2001, dated 2003).

How the values were obtained:
[1] = target: T1, Human glucocorticoid receptors (Homo sapiens, UniProt P04150); experiment: Radioligand filter binding assay, displacement of 3[H]-dexamethasone from hGR; details: read-out: GR Binding (% Inhibition at 1.7 μM)
T1 construct: made in house; host or cells: Sf9 insect cells, recombinant baculovirus (BAC-TO-BAC)
T1 sequence (P04150 1-777): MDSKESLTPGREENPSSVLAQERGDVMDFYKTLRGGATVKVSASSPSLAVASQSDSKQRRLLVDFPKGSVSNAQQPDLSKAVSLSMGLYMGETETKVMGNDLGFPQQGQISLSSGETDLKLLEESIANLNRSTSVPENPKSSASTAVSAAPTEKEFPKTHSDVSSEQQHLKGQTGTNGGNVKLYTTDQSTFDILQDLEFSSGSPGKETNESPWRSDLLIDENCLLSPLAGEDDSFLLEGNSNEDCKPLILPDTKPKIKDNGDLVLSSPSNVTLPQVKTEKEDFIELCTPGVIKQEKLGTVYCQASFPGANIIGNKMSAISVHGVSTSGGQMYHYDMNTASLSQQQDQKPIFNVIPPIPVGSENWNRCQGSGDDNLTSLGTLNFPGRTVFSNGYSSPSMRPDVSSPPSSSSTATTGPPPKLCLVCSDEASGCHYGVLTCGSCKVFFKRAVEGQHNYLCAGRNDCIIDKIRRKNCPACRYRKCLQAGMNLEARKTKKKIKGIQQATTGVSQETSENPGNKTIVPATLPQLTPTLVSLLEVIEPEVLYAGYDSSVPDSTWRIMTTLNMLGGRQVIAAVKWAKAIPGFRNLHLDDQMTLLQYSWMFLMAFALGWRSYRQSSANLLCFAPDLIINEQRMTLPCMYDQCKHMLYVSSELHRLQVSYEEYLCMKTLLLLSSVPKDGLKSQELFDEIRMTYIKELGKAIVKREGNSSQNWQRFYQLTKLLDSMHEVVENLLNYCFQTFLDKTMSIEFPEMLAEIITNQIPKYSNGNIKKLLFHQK
Outline: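 Recombinant hGR extract from baculovirus-infected Sf9 cells (final ~1 nM receptor) incubated with ³H-dexamethasone and test compound dilutions in duplicate, EDTA/phosphate pH 8 buffer with MTG, overnight (15-20 h) at +4° C. Bound label collected on PEI-treated GF/B filters and scintillation-counted; IC50 from four-parameter fit of corrected cpm.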

[2] = target: T2, progesterone receptor (PR) (Homo sapiens, UniProt P06401); experiment: Radioligand binding assay for progesterone receptor (similar protocol);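 note: radioligand binding measured with cytosol preparations containing the human progesterone receptor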
T2 sequence (P06401 1-933): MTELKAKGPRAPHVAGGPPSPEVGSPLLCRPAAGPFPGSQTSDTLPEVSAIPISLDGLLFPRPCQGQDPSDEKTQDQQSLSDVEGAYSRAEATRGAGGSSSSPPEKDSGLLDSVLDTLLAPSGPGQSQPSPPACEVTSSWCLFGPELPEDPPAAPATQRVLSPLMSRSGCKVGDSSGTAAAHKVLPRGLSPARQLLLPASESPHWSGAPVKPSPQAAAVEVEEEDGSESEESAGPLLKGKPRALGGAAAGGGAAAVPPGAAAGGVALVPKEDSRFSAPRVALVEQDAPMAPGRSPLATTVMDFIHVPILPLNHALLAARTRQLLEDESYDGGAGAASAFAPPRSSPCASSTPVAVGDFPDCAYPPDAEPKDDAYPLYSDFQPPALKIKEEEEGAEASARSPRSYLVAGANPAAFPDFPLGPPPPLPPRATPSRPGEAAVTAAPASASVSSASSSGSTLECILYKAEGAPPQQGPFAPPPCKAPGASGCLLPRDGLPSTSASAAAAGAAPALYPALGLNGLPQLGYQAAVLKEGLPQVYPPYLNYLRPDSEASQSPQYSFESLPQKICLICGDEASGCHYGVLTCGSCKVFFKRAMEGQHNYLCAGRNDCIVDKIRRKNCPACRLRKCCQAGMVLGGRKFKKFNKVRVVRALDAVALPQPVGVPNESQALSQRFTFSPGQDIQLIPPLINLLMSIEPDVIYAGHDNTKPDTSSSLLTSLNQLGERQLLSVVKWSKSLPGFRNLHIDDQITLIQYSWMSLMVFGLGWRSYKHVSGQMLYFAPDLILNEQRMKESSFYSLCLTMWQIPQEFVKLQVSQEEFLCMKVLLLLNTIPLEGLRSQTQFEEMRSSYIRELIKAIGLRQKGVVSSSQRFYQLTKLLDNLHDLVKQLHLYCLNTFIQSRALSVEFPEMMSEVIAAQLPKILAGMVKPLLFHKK
Excerpt: Methods for Radiolipand Binding Studies with Human Glucocorticoid and Progesterone Receptor Cytosol

[3] = test system: obese diabetic db/db transgenic mice; details: Friedman et al. 1997; cited from earlier work

| Structure (SMILES) | inhibition at 1.7 µM [1] | IC50 [2] | reduction of plasma glucose levels [3] |
| --- | --- | --- | --- |
| Cc1c(NS(C)(=O)=O)cccc1N(Cc1ccccc1)Cc1ccc(Oc2ccc(CCC(=O)NCCCCCCO)cc2)cc1 [Example 153, 3-(4-{4-[(benzyl{2-methyl-3-[(methlsulfonyl)amino]phenyl}amino)methyl]phenoxy}phenyl)-N-(6-hydroxyhexyl)propanamide] | 91.7% | 255 nM |  |
| Cc1c(NS(C)(=O)=O)cccc1N(Cc1ccc(Oc2cccc(OCCCC(=O)NCCC(=O)O)c2)cc1)Cc1ccc(F)cc1F [Example 324, N-(4-(3-(4-(((2,4-difluorobenzyl)(2-methyl-3-((methylsulfonyl)amino)phenyl)amino)methyl)phenoxy)phenoxy)butanoyl)-beta-alanine] | 97.4% | 123 nM |  |
| Cc1c(NS(C)(=O)=O)cccc1N(Cc1ccc(Oc2cccc(OCCCC(=O)NCCCC(=O)O)c2)cc1)Cc1ccc(F)cc1F [Example 325, 4-((4-(3-(4-(((2,4-difluorobenzyl)(2-methyl-3-((methylsulfonyl)amino)phenyl)amino)methyl)phenoxy)phenoxy)butanoyl)amino)butanoic acid] | 97.7% | 122 nM |  |
| CC#C[C@]1(O)CC[C@H]2[C@@H]3CCC4=CC(=O)CCC4=C3[C@@H](c3ccc(N(C)C)cc3)C[C@@]21C [Mifepristone] |  |  | 50% |

Further lines, with some results ahead:

| inhibition at 1.7 µM [1] | IC50 [2] | Structure (SMILES) | reduction of plasma glucose levels [3] |
| --- | --- | --- | --- |
| 92.3% | 921 nM | Cc1c(NS(C)(=O)=O)cccc1N(Cc1ccc(OCc2ccoc2)cc1)Cc1ccc(F)cc1F [Example 154, N-(3-{(2,4-difluorobenzyl)[4-(3-furylmethoxy)benzyl]amino}-2-methylphenyl)methanesulfonamide] |  |
| 92.8% | 499 nM | Cc1c(NS(C)(=O)=O)cccc1N(Cc1ccc(OCc2ccco2)cc1)Cc1ccc(F)cc1F [Example 155, N-(3-{(2,4-difluorobenzyl)[4-(2-furylmethoxy)benzyl]amino}-2-methylphenyl)methanesulfonamide] |  |
| 98.5% | 360 nM | Cc1c(NS(C)(=O)=O)cccc1N(Cc1ccc(Oc2ccc(Cl)c(O)c2)cc1)Cc1ccc(F)cc1F [Example 322, N-(3-((4-(4-chloro-3-hydroxyphenoxy)benzyl)(2,4-difluorobenzyl)amino)-2-methylphenyl)methanesulfonamide] |  |
| 98.2% | 66.6 nM | Cc1c(NS(C)(=O)=O)cccc1N(Cc1ccc(Oc2ccc(Br)c(OCC(=O)O)c2)cc1)Cc1ccc(F)cc1F [Example 323, (2-bromo-5-(4-(((2,4-difluorobenzyl)(2-methyl-3-((methylsulfonyl)amino)phenyl)amino)methyl)phenoxy)phenoxy)acetic acid] |  |
| 97% | 183 nM | Cc1c(NS(C)(=O)=O)cccc1N(Cc1ccc(Oc2cccc(OCCCC(=O)N(C)CC(=O)O)c2)cc1)Cc1ccc(F)cc1F [Example 326, N-(4-(3-(4-(((2,4-difluorobenzyl)(2-methyl-3-((methylsulfonyl)amino)phenyl)amino)methyl)phenoxy)phenoxy)butanoyl)-N-methylglycine] |  |
